Assay results reported in patent US12172983B2, “EGFR inhibitors” (Blueprint Medicines Corporation, priority 2019, dated 2024).
Like-named read-outs stand apart in the source and are kept apart here.

Legend:
[1] = target: T1, EGFR (L858R T790M C797S) (Homo sapiens, UniProt P00533, C797S/L858R/T790M); assay: Biochemical EGFR inhibition assay (Caliper mobility shift), EGFR LRTMCS mutant; details: inhibitory activity against EGFR LRTMCS mutant; apparent IC50; read-out: Ext Enz LRTMCS
T1 construct: purchased SignalChem E10-122VG
Summary of the method: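 Apparent IC50s were derived by plotting percent activity against the log of compound concentration. Activity was measured as phosphopeptide electrophoretically separated from substrate, after reactions at room temperature reached 10% to 20% phosphorylation and were halted with 35 mM EDTA.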

[2] = system: phosphorylation of EGFR (Tyr1068) in NCI-H1975 cell line that harbors the EGFR L858R T790M mutations; assay: NCI-H1975 pEGFR AlphaLISA assay; type: cell-based; details: 4-5 hours incubation, read-out: Ext pEGFR H1975
Summary of the method: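 Phospho-EGFR Tyr1068 AlphaLISA readout: lysates taken from compound-treated H1975 cells (L858R T790M EGFR) after a 4-5 h exposure at 37 °C. Cells had adhered overnight beforehand. IC50 derived by plotting % pEGFR inhibition against log compound concentration.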

[3] = Homo sapiens, NCI-H1975, inhibition of phosphorylation of mutant EGFR in NCI-H1975 cells
[4] = inhibition of phosphorylation of mutant EGFR in NCI-H1975 cells

T1 sequence (P00533 25-1210 T790M/C797S/L858R): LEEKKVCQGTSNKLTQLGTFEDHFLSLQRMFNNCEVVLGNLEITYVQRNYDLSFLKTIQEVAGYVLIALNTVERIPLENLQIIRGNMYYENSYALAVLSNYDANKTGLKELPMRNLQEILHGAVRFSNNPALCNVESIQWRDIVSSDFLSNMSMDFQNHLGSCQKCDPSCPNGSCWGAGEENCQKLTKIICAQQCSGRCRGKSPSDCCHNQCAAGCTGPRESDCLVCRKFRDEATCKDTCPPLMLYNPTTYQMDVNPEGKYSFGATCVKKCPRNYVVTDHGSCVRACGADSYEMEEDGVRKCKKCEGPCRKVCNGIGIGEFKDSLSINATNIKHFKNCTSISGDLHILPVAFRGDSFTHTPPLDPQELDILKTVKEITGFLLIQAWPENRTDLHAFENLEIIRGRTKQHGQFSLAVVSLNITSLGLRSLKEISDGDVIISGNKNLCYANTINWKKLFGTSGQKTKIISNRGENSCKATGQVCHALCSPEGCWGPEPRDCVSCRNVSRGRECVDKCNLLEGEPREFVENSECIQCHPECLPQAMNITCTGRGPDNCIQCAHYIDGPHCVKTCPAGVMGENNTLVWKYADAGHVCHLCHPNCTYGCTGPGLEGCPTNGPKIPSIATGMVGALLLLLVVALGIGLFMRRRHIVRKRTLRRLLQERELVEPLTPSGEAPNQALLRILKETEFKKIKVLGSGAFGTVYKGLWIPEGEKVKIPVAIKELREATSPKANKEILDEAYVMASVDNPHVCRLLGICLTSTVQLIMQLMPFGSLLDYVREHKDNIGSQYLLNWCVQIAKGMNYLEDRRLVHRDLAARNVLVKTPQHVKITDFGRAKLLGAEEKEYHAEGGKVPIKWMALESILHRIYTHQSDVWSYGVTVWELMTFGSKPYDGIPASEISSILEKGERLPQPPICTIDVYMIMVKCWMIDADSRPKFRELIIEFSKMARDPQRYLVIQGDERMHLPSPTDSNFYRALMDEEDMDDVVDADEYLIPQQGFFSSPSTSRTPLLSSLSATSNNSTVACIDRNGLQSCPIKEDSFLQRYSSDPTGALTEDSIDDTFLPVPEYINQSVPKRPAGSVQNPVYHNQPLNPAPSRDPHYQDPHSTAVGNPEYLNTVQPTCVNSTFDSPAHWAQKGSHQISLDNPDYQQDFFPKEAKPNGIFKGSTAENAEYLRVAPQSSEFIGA

Row | SMILES | IC50 [1] [nM] | IC50 [2, 3] [nM] | IC50 [2, 4] [nM]
1 | CC(C)c1ccc(N2CC(CS(C)(=O)=O)C2)c2cnc(Nc3ccnc(N4CCOCC4)n3)cc12 [Compound 1, 8-[3-(methanesulfonylmethyl)azetidin-1-yl]-N-[2-(morpholin-4-yl)pyrimidin-4-yl]-5-(propan-2-yl)isoquinolin-3-amine] | 15.1 to 20 | 30.1 to 50 | 
2 | CC(C)c1cnc(N2CC(CS(C)(=O)=O)C2)c2cnc(Nc3ccnc(N4CCN(C)CC4)n3)cc12 [Compound 3, 8-[3-(methanesulfonylmethyl)azetidin-1-yl]-N-[2-(4-methylpiperazin-1-yl)pyrimidin-4-yl]-5-(propan-2-yl)-2,7-naphthyridin-3-amine] | 20.1 to 30 | 30.1 to 50 | 
3 | CO[C@H]1CCN(c2nccc(Nc3cc4cccc(N5C[C@H](CS(C)(=O)=O)[C@H]5C)c4cn3)n2)C[C@H]1F [Compound 4, N-{2-[(3R,4S)-3-fluoro-4-methoxypiperidin-1-yl]pyrimidin-4-yl}-8-[(2R,3S)-3-(methanesulfonylmethyl)-2-methylazetidin-1-yl]isoquinolin-3-amine] | ≤ 15 | 30.1 to 50 | 
4 | CO[C@@H]1CCN(c2nccc(Nc3cc4cccc(N5C[C@H](CS(C)(=O)=O)[C@H]5C)c4cn3)n2)C[C@@H]1F [Compound 5, N-{2-[(3S,4R)-3-fluoro-4-methoxypiperidin-1-yl]pyrimidin-4-yl}-8-[(2R,3S)-3-(methanesulfonylmethyl)-2-methylazetidin-1-yl]isoquinolin-3-amine] | ≤ 15 | 10.1 to 20 | 
5 | CC(C)c1ccc(N2CC(CS(C)(=O)=O)C2)c2cnc(Nc3ccnc(N4C[C@H]5COC[C@H]5C4)n3)cc12 [Compound 10, N-{2-[(3aR,6aS)-hexahydro-1H-furo[3,4-c]pyrrol-5-yl]pyrimidin-4-yl}-8-[3-(methanesulfonylmethyl)azetidin-1-yl]-5-(propan-2-yl)isoquinolin-3-amine] | ≤ 15 | 30.1 to 50 | 
6 | CC(C)c1ccc(N2CC(CS(C)(=O)=O)C2)c2cnc(Nc3ccnc(N4CC5CCC(C4)O5)n3)cc12 [Compound 12, 8-[3-(methanesulfonylmethyl)azetidin-1-yl]-N-(2-{8-oxa-3-azabicyclo[3.2.1]octan-3-yl}pyrimidin-4-yl)-5-(propan-2-yl)isoquinolin-3-amine] | ≤ 15 | 30.1 to 50 | 
7 | CC(C)c1cnc(N2CC(CS(C)(=O)=O)C2)c2cnc(Nc3ccnc(N4C[C@H]5COC[C@H]5C4)n3)cc12 [Compound 14, N-{2-[(3aR,6aS)-hexahydro-1H-furo[3,4-c]pyrrol-5-yl]pyrimidin-4-yl}-8-[3-(methanesulfonylmethyl)azetidin-1-yl]-5-(propan-2-yl)-2,7-naphthyridin-3-amine or N-{2-[(3aS,6aR)-hexahydro-1H-furo[3,4-c]pyrrol-5-yl]pyrimidin-4-yl}-8-[3-(methanesulfonylmethyl)azetidin-1-yl]-5-(propan-2-yl)-2,7-naphthyridin-3-amine] | 15.1 to 20 |  | 30.1 to 50
8 | CC(C)c1ccc(N2C[C@H](CS(C)(=O)=O)[C@H]2C)c2cnc(Nc3ccnc(N4CCN(C)CC4)n3)cc12 [Compound 16, 8-[(2R,3S)-3-(methanesulfonylmethyl)-2-methylazetidin-1-yl]-N-[2-(4-methylpiperazin-1-yl)pyrimidin-4-yl]-5-(propan-2-yl)isoquinolin-3-amine] | 20.1 to 30 | 10.1 to 20 | 
9 | CC(C)c1ccc(N2CC(CS(C)(=O)=O)C2)c2cnc(Nc3ccnc(N4CCC(C)(O)CC4)n3)cc12 [Compound 17, 1-[4-({8-[3-(methanesulfonylmethyl)azetidin-1-yl]-5-(propan-2-yl)isoquinolin-3-yl}amino)pyrimidin-2-yl]-4-methylpiperidin-4-ol] | ≤ 15 | 10.1 to 20 | 
10 | COC1CCN(c2nccc(Nc3cc4c(C(C)C)cnc(N5CC(CS(C)(=O)=O)C5)c4cn3)n2)CC1 [Compound 22, 8-[3-(methanesulfonylmethyl)azetidin-1-yl]-N-[2-(4-methoxypiperidin-1-yl)pyrimidin-4-yl]-5-(propan-2-yl)-2,7-naphthyridin-3-amine] | ≤ 15 | ≤ 10 | 
11 | COC1CCN(c2nncc(Nc3cc4c(C(C)C)ccc(N5CC(CS(C)(=O)=O)C5)c4cn3)n2)CC1 [Compound 23, 8-[3-(methanesulfonylmethyl)azetidin-1-yl]-N-[3-(4-methoxypiperidin-1-yl)-1,2,4-triazin-5-yl]-5-(propan-2-yl)isoquinolin-3-amine] | ≤ 15 | 10.1 to 20 | 
12 | CC(C)c1ccc(N2CC(CS(C)(=O)=O)C2)c2cnc(Nc3ccnc(N4CC[C@@H](O)[C@@H](F)C4)n3)cc12 [Compound 28, (3S,4R)-3-fluoro-1-[4-({8-[3-(methanesulfonylmethyl)azetidin-1-yl]-5-(propan-2-yl)isoquinolin-3-yl}amino)pyrimidin-2-yl]piperidin-4-ol] | ≤ 15 | ≤ 10 | 
13 | CC(C)c1ccc(N2CC(CS(C)(=O)=O)C2)c2cnc(Nc3ccnc(N4CC[C@H](O)[C@H](F)C4)n3)cc12 [Compound 29, (3R,4S)-3-fluoro-1-[4-({8-[3-(methanesulfonylmethyl)azetidin-1-yl]-5-(propan-2-yl)isoquinolin-3-yl}amino)pyrimidin-2-yl]piperidin-4-ol] | ≤ 15 | ≤ 10 | 
14 | CO[C@@H]1CCN(c2nccc(Nc3cc4c(F)ccc(N5C[C@H](CS(C)(=O)=O)[C@H]5C)c4cn3)n2)C[C@@H]1F [Compound 36, 5-fluoro-N-{2-[(3S,4R)-3-fluoro-4-methoxypiperidin-1-yl]pyrimidin-4-yl}-8-[(2R,3S)-3-(methanesulfonylmethyl)-2-methylazetidin-1-yl]isoquinolin-3-amine] | ≤ 15 | ≤ 10 | 

More lines, now with the values ahead:

Row | IC50 [1] [nM] | IC50 [2, 3] [nM] | IC50 [2, 4] [nM] | SMILES
15 | 15.1 to 20 | ≤ 10 |  | CN[C@H]1CCN(c2nccc(Nc3cc4c(C(C)C)ccc(N5C[C@H](CS(C)(=O)=O)[C@H]5C)c4cn3)n2)CC1(F)F (single isomer, unassigned) [Compound 309, N-{2-[(4S)-3,3-difluoro-4-(methylamino)piperidin-1-yl]pyrimidin-4-yl}-8-[(2R,3S)-3-(methanesulfonylmethyl)-2-methylazetidin-1-yl]-5-(propan-2-yl)isoquinolin-3-amine or N-{2-[(4R)-3,3-difluoro-4-(methylamino)piperidin-1-yl]pyrimidin-4-yl}-8-[(2R,3S)-3-(methanesulfonylmethyl)-2-methylazetidin-1-yl]-5-(propan-2-yl)isoquinolin-3-amine]
16 | ≤ 15 |  | ≤ 10 | CN[C@H]1CCN(c2nccc(Nc3cc4c(C(C)C)ccc(N5C[C@H](CS(C)(=O)=O)[C@H]5C)c4cn3)n2)CC1(F)F (single isomer, unassigned) [Compound 310, N-{2-[(4R)-3,3-difluoro-4-(methylamino)piperidin-1-yl]pyrimidin-4-yl}-8-[(2R,3S)-3-(methanesulfonylmethyl)-2-methylazetidin-1-yl]-5-(propan-2-yl)isoquinolin-3-amine or N-{2-[(4S)-3,3-difluoro-4(methylamino)piperidin-1-yl]pyrimidin-4-yl}-8-[(2R,3S)-3-(methanesulfonylmethyl)-2-methylazetidin-1-yl]-5-(propan-2-yl)isoquinolin-3-amine]
17 | 20.1 to 30 | ≤ 10 |  | [2H]C([2H])([2H])O[C@H]1[C@@H](O)CN(c2nccc(Nc3cc4c(C(C)C)ccc(N5C[C@H](CS(C)(=O)=O)[C@H]5C)c4cn3)n2)CC1(F)F (single isomer, unassigned) [Compound 313, (3S,4S)-5,5-difluoro-1-(4-((5-isopropyl-8-((2R,3S)-2-methyl-3-((methylsulfonyl)methyl)azetidin-1-yl)isoquinolin-3-yl)amino)pyrimidin-2-yl)-4-(^2H3)methoxypiperidin-3-ol or (3R,4R)-5,5-difluoro-1-(4-((5-isopropyl-8-((2R,3S)-2-methyl-3-((methylsulfonyl)methyl)azetidin-1-yl)isoquinolin-3-yl)amino)pyrimidin-2-yl)-4-(^2H3)methoxypiperidin-3-ol]
18 | 30.1 to 100 |  | ≤ 10 | [2H]C([2H])([2H])O[C@H]1[C@@H](O)CN(c2nccc(Nc3cc4c(C(C)C)ccc(N5C[C@H](CS(C)(=O)=O)[C@H]5C)c4cn3)n2)CC1(F)F (single isomer, unassigned) [Compound 314, (3S,4S)-5,5-difluoro-1-(4-((5-isopropyl-8-((2R,3S)-2-methyl-3-((methylsulfonyl)methyl)azetidin-1-yl)isoquinolin-3-yl)amino)pyrimidin-2-yl)-4-(^2H3)methoxypiperidin-3-ol or (3R,4R)-5,5-difluoro-1-(4-((5-isopropyl-8-((2R,3S)-2-methyl-3-((methylsulfonyl)methyl)azetidin-1-yl)isoquinolin-3-yl)amino)pyrimidin-2-yl)-4-(^2H3)methoxypiperidin-3-ol]
19 | 20.1 to 30 | ≤ 10 |  | CO[C@@H]1[C@H](F)CN(c2nccc(Nc3cc4c(C(C)C)ccc(N5CC(CS(C)(=O)=O)C5)c4cn3)n2)C[C@@H]1OC (stereo in doubt) [Compound 201]
20 | ≤ 15 | 10.1 to 20 |  | CO[C@H]1CCN(c2nccc(Nc3cc4c(F)ccc(N5C[C@H](CS(C)(=O)=O)[C@H]5C)c4cn3)n2)C[C@H]1F [Compound 37, 5-fluoro-N-{2-[(3R,4S)-3-fluoro-4-methoxypiperidin-1-yl]pyrimidin-4-yl}-8-[(2R,3S)-3-(methanesulfonylmethyl)-2-methylazetidin-1-yl]isoquinolin-3-amine]
